In ChEMBL document CHEMBL1155864, “N-Acyl-3-amino-5H-furanone derivatives as new inhibitors of LuxR-dependent quorum sensing: Synthesis, biological evaluation and binding mode study” (Bioorg Med Chem Lett, 2008) one finds IC50 and Activity data, which are given here for six compounds.

Assay [1] addresses T1, Transcriptional activator protein LuxR (Aliivibrio fischeri, UniProt P12746).
T1 sequence (P12746 whole entry): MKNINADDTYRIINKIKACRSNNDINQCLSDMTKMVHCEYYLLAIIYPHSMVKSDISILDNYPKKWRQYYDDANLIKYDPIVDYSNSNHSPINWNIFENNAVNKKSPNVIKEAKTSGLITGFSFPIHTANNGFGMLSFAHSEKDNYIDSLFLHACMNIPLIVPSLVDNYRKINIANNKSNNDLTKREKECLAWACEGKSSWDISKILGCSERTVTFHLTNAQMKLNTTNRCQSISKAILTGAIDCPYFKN
Description: Inhibition of LuxR-dependent Vibrio fischeri quorum sensing assessed as reduction in 3-oxo-hexanoyihomoserine-induced bioluminescence.

The target in assay [2] is T2, Transcriptional activator protein LuxR (Aliivibrio fischeri) (UniProt P12746).
T2 sequence (whole entry): T1 sequence (P12746 whole entry)
Kind of assay: Inhibition of LuxR-dependent Vibrio fischeri quorum sensing assessed as reduction in 3-oxo-hexanoyihomoserine-induced bioluminescence upto 100 uM.

Activity calls are given as the source filed them. The calls are words filed in the database; no cut-off is given here.

Regarding `CCCCCC(=O)NC1=C(Cl)COC1=O`, the IC50 in assay [1] is 6.9 µM.

`CCCCCC(=O)NC1=C(Br)COC1=O`: the IC50 in assay [1] is 6.5 µM.

For `CCCC(=O)CC(=O)NC1=CCOC1=O`, the IC50 in assay [1] is 55 µM.

`O=C(CCCc1ccccc1)NC1=C(Br)COC1=O`: the IC50 in assay [1] amounted to 84 µM.

For the compound `O=C(CCCc1ccccc1)NC1=CCOC1=O`, in assay [2], the result was inactive.

Consider `CCCCCC(=O)NC1=CCOC1=O`, for which the IC50 in assay [1] was 85 µM.

Broadly, the IC50 is the concentration needed to halve the response being measured.
